Test results taken from publication PMC9934367, “Functional impact of subunit composition and compensation on Drosophila melanogaster nicotinic receptors–targets of neonicotinoids” (PLOS Genetics, 2023).
Like-named read-outs stand apart in the source and are kept apart here.

Tests used:
Assay in all cases: Voltage-clamp electrophysiology, nAChR expressed in X. laevis oocytes
Type in all cases: cell-based, D. melanogaster
Dα2/Dα3/Dβ1/Dβ2 nAChR = biological target: T1, Dα2/Dα3/Dβ1/Dβ2 nAChR (Drosophila melanogaster, UniProt P04755+P17644+P25162+Q9W3G6); conditions: mean ± standard error (n = 5)
T1 construct: Dα2 (NP_524482); Dβ1 (NP_523927); Dβ2 (NP_524483); expressed in transfected cells; host or cells: Xenopus laevis oocytes (cRNA injection)
Experimental: (§1) cDNAs of the nAChR subunits and co-factors were cloned into pcDNA3.1 (+) vector (Thermo Fisher Scientific). The accession numbers of the nAChR subunits and cofactors are as follows: Dα1 (NP_524481), Dα2 (NP_524482), Dα3 (NP_525079), Dα4 (CAB77445), Dβ1 (NP_523927), Dβ2 (NP_524483), Dβ3 (NP_525098), DmRIC-3 (CAP16647), DmUNC-50 (NP_649813), and DmTMX3 (NP_648847). cRNAs were prepared using the mMESSAGE mMACHINE T7 ULTRA Transcription Kit (Thermo Fisher Scientific, #AM1345) according to the manual with the cDNA template which was cut with appropriate restriction enzymes at the 3’ end of the cDNA.
(§2) We minimised the use of X. laevis according to the UK Animals (Scientific Procedures) Act, 1986. […] Oocytes were defolliculated after collagenase treatment in Ca^2+-free standard oocyte saline (Ca^2+-free SOS). cRNAs of the nAChR subunits and co-factors mixed at a concentration of 0.1 mg/mL was injected into oocytes at a volume of 50 nL. Then the oocytes were incubated in the incubation medium (SOS supplemented with sodium pyruvate (Nacalai Tesque, #13058–12), penicillin-streptomycin (MilliporeSigma, #P4333), gentamycin (Nacalai Tesque, #16672–04), and 4% horse serum (Thermo Fisher Scientific, #26050–070) for 3−4 days prior to electrophysiology.
(§3) Each defolliculated X. laevis oocyte was secured in a Perspex recording chamber and perfused with the standard oocyte saline (SOS) containing 0.5 μM atropine (SOSA) at a flow rate of 7−10 mL/min [48]. Two glass electrodes filled with 2 M KCl were impaled into each oocyte and the membrane potential was clamped at -100 mV. […] The peak amplitude of the response was measured and analysed by pCLAMP (Molecular Devices, USA).
(§4) Y=Imax/1+10^(logEC50‐X)nH
(§5) Where Y is the normalised response, X is log[ligand (M)], EC50 is the half maximal concentration (M), Imax is the maximum normalised response and nH is the Hill coefficient.

Dα1/Dβ1/Dβ2 nAChR = biological target: T2, Dα1/Dβ1/Dβ2 nAChR (Drosophila melanogaster, UniProt P04755+P09478+P25162)
T2 construct: Dα1 (NP_524481); Dβ1 (NP_523927); Dβ2 (NP_524483); expressed in transfected cells; host or cells: Xenopus laevis oocytes (cRNA injection)
Experimental: as §1, §2, §3, §4, §5

Dα1/Dα2/Dβ1 nAChR = biological target: T3, Dα1/Dα2/Dβ1 nAChR (Drosophila melanogaster, UniProt P04755+P09478+P17644)
T3 construct: Dα1 (NP_524481); Dα2 (NP_524482); Dβ1 (NP_523927); expressed in transfected cells; host or cells: Xenopus laevis oocytes (cRNA injection)
Experimental: as §1, §2, §3, §4, §5

Dα3/Dβ1/Dβ2 nAChR = biological target: T4, Dα3/Dβ1/Dβ2 nAChR (Drosophila melanogaster, UniProt P04755+P25162+Q9W3G6); conditions: Dα3/Dβ1/Dβ2 nAChR
T4 construct: Dβ1 (NP_523927); Dβ2 (NP_524483); expressed in transfected cells; host or cells: Xenopus laevis oocytes (cRNA injection)
Experimental: as §1, §2, §3, §4, §5

Dα1/Dα2/Dβ1/Dβ2 nAChR = biological target: T5, Dα1/Dα2/Dβ1/Dβ2 nAChR (Drosophila melanogaster, UniProt P04755+P09478+P17644+P25162); conditions: mean ± standard error (n = 5)
T5 construct: Dα1 (NP_524481); Dα2 (NP_524482); Dβ1 (NP_523927); Dβ2 (NP_524483); expressed in transfected cells; host or cells: Xenopus laevis oocytes (cRNA injection)
Experimental: as §1, §2, §3, §4, §5

[1] = test system: T6, Dα1/Dα2/Dα3/Dβ1/Dβ2 nAChR; conditions: mean ± standard error (n = 5)
T6 construct: Dα1 (NP_524481); Dα2 (NP_524482); Dβ1 (NP_523927); Dβ2 (NP_524483); expressed in transfected cells; host or cells: Xenopus laevis oocytes (cRNA injection)
Experimental: as §1, §2, §3, §4, §5

Dα1/Dβ1 nAChR = biological target: T7, Dα1/Dβ1 nAChR (Drosophila melanogaster, UniProt P04755+P09478); conditions: mean ± standard error (n = 5)
T7 construct: Dα1 (NP_524481); Dβ1 (NP_523927); expressed in transfected cells; host or cells: Xenopus laevis oocytes (cRNA injection)
Experimental: as §1, §2, §3, §4, §5

Dα2/Dα3/Dβ1 nAChR = biological target: T8, Dα2/Dα3/Dβ1 nAChR (Drosophila melanogaster, UniProt P04755+P17644+Q9W3G6); conditions: Dα2/Dα3/Dβ1 nAChR, mean ± standard error (n = 5)
T8 construct: Dα2 (NP_524482); Dβ1 (NP_523927); expressed in transfected cells; host or cells: Xenopus laevis oocytes (cRNA injection)
Experimental: as §1, §2, §3, §4, §5

[2] = biological target: T9, Dα1/Dα3/Dβ1/Dβ2/Dβ3 nAChR; conditions: mean ± standard error (n = 5); for Imax: normalised to maximum ACh response
T9 construct: Dα1 (NP_524481); Dβ1 (NP_523927); Dβ2 (NP_524483); expressed in transfected cells; host or cells: Xenopus laevis oocytes (cRNA injection)
Experimental: as §1, §2, §3, §4, §5

[3] = biological target: T10, Dα2/Dα3/Dβ1/Dβ2/Dβ3 nAChR; conditions: mean ± standard error (n = 5); for Imax: normalised to maximum ACh response
T10 construct: Dα2 (NP_524482); Dβ1 (NP_523927); Dβ2 (NP_524483); expressed in transfected cells; host or cells: Xenopus laevis oocytes (cRNA injection)
Experimental: as §1, §2, §3, §4, §5

[4] = biological target: T11, Dα1/Dα2/Dβ1/Dβ2/Dβ3 nAChR; conditions: mean ± standard error (n = 5); for Imax: normalised to maximum ACh response
T11 construct: Dα1 (NP_524481); Dα2 (NP_524482); Dβ1 (NP_523927); Dβ2 (NP_524483); expressed in transfected cells; host or cells: Xenopus laevis oocytes (cRNA injection)
Experimental: as §1, §2, §3, §4, §5

[5] = efficacy, mean ± standard error (n = 5)
[6] = normalised to maximum ACh response
[7] = normalised to maximum ACh response, mean ± standard error (n = 5)
[8] = mean ± standard error (n = 5), read-out: pEC50 (converted)

Row | SMILES | Imax (Dα2/Dα3/Dβ1/Dβ2 nAChR; efficacy) | Imax (Dα1/Dβ1/Dβ2 nAChR; [5]) | Imax (Dα1/Dα2/Dβ1 nAChR; [5]) | Imax (Dα3/Dβ1/Dβ2 nAChR; [5]) | Imax (Dα1/Dα2/Dβ1/Dβ2 nAChR; efficacy) | Imax ([1]; efficacy) | Imax (Dα1/Dβ1 nAChR; efficacy) | Imax (Dα2/Dα3/Dβ1 nAChR; efficacy) | EC50 (Dα2/Dα3/Dβ1/Dβ2 nAChR) [nM] | Imax (Dα2/Dα3/Dβ1/Dβ2 nAChR; [6]) | pEC50 [2] | Imax [2] | Imax (Dα1/Dβ1/Dβ2 nAChR; [7]) | pEC50 [3] | Imax [3] | Imax (Dα1/Dα2/Dβ1 nAChR; [7]) | Imax (Dα3/Dβ1/Dβ2 nAChR; [7]) | EC50 (Dα1/Dα2/Dβ1/Dβ2 nAChR) [nM] | Imax (Dα1/Dα2/Dβ1/Dβ2 nAChR; [6]) | pEC50 [1] | also measured
1 | CC(=O)OCC[N+](C)(C)C [ACh, acetylcholine] | 1 | 1 | 1 | 1 | 1 | 1 | 1 | 1 | – | – | – | – | – | – | – | – | – | – | – | – | –
2 | CN/C(=N\[N+](=O)[O-])NCc1cnc(Cl)s1 [Clothianidin, clothianidin] | 0.634 | 0.360 | 0.699 | 0.492 | 0.800 | 0.812 | 0.508 | 0.882 | 51.3 | 0.634 ± 0.020 | 7.60 ± 0.12 | 0.531 ± 0.026 | 0.360 ± 0.016 | 7.46 ± 0.06 | 0.695 ± 0.014 | 0.699 ± 0.034 | 0.492 ± 0.016 | 490 | 0.800 ± 0.033 | 6.59 ± 0.07 | EC50 (Dα1/Dβ1/Dβ2 nAChR; read-out: EC50): 229 nM; EC50 (Dα1/Dα2/Dβ1 nAChR; [8]): 8510 nM; EC50 (Dα3/Dβ1/Dβ2 nAChR; read-out: EC50): 34.7 nM; Imax [1, 6]: 0.812 ± 0.019; Imax ([1]; normalised to maximum ACh response, listed as clothianidin): 0.812; pEC50 [4]: 5.67 ± 0.11; Imax [4]: 0.974 ± 0.041; Imax ([4]; listed as clothianidin): 0.974; EC50 (Dα1/Dβ1 nAChR): 74.1 nM; Imax (Dα1/Dβ1 nAChR; [6]): 0.508 ± 0.015; EC50 (Dα2/Dα3/Dβ1 nAChR): 155 nM; Imax (Dα2/Dα3/Dβ1 nAChR; [6]): 0.882 ± 0.076
3 | O=[N+]([O-])NC1=NCCN1Cc1ccc(Cl)nc1 [Imidacloprid, imidacloprid] | 0.125 | 0.076 | 0.031 | 0.039 | 0.165 | 0.142 | 0.122 | 0.101 | 100 | 0.125 ± 0.018 | 7.72 ± 0.11 | 0.140 ± 0.008 | 0.076 ± 0.006 | 7.75 ± 0.31 | 0.021 ± 0.003 | 0.031 ± 0.002 | 0.039 ± 0.002 | 355 | 0.165 ± 0.016 | 6.47 ± 0.14 | EC50 (Dα1/Dβ1/Dβ2 nAChR; read-out: EC50): 102 nM; Imax ([3]; listed as imidacloprid): 0.021; EC50 (Dα1/Dα2/Dβ1 nAChR; [8]): 195 nM; EC50 (Dα3/Dβ1/Dβ2 nAChR; read-out: EC50): 5.25 nM; Imax [1, 6]: 0.142 ± 0.011; Imax ([1]; normalised to maximum ACh response, listed as imidacloprid): 0.142; pEC50 [4]: 6.27 ± 0.21; Imax [4]: 0.080 ± 0.007; Imax ([4]; listed as imidacloprid): 0.080; EC50 (Dα1/Dβ1 nAChR): 69.2 nM; Imax (Dα1/Dβ1 nAChR; [6]): 0.122 ± 0.007; EC50 (Dα2/Dα3/Dβ1 nAChR): 132 nM; Imax (Dα2/Dα3/Dβ1 nAChR; [6]): 0.101 ± 0.016
4 | N#C/N=C1\SCCN1Cc1ccc(Cl)nc1 [Thiacloprid, thiacloprid] | 0.017 | 0.043 | 0.025 | 0.022 | 0.074 | 0.059 | 0.091 | 0.045 | 8.32 | 0.017 ± 0.002 | 8.63 ± 0.23 | 0.089 ± 0.009 | 0.043 ± 0.002 | 8.31 ± 0.17 | 0.010 ± 0.001 | 0.025 ± 0.001 | 0.022 ± 0.003 | 79.4 | 0.074 ± 0.014 | 7.18 ± 0.17 | EC50 (Dα1/Dβ1/Dβ2 nAChR; [8]): 13.8 nM; Imax ([3]; listed as thiacloprid): 0.010; EC50 (Dα1/Dα2/Dβ1 nAChR; read-out: EC50): 120 nM; EC50 (Dα3/Dβ1/Dβ2 nAChR; [8]): 4.79 nM; Imax [1, 6]: 0.059 ± 0.006; Imax ([1]; normalised to maximum ACh response, listed as thiacloprid): 0.059; pEC50 [4]: 7.71 ± 0.43; Imax [4]: 0.023 ± 0.004; Imax ([4]; listed as thiacloprid): 0.023; EC50 (Dα1/Dβ1 nAChR): 16.2 nM; Imax (Dα1/Dβ1 nAChR; [6]): 0.091 ± 0.009; EC50 (Dα2/Dα3/Dβ1 nAChR): 120 nM; Imax (Dα2/Dα3/Dβ1 nAChR; [6]): 0.045 ± 0.006
